How the values were obtained:
advanced HCC = settings: cited from earlier work
[1] = tested on: PRL-3+ and PRL-3− cancer cells; assay: In vitro cancer cell growth assay; assay type: cell-based; settings: PRL-3+ and PRL-3− cells; PRL3-zumab up to 50 mg/mL
[2] = tested on: PRL-3^+ SNU-484 orthotopic gastric tumors; assay: Orthotopic gastric cancer model, SNU-484; assay type: in vivo, Balb/C nude mice
Description: Eight-week old male Balb/C nude mice obtained from the Biological Resource Centre (A*STAR, Singapore) were used for all animal models in this study. […] The stomach was taken out through the abdominal incision by surgical forceps, and cancer cells were injected into the subserosa layer. Subsequently, the stomach was placed back and the abdomen was sutured back in layers. […] The treatment regime commenced on day 2 post-inoculation of cancer cells in the gastric subserosa layer. […] PBS was used as a control in “untreated” mice. […] Tumor volumes were calculated using the formula: volume=0.4×tumor length×tumor width×tumor width.
10 μm-thick cryosection slides were fixed with 4% formalin for 20 min and incubated with 1% H2O2-PBS in the dark for 5 min. Washed slides were then blocked in PBS containing 10% goat serum and 1% BSA (Sigma) for 1 h at RT. Subsequently, slides were washed four times in PBS-0.05% Tween-20 with gentle shaking and incubated with goat anti-human labeled polymer-HRP (Dako) for 2 h before washing extensively and incubating with substrate-chromogen solution (Dako) for 10-20 min in the dark. Mounted slides were examined using a brightfield microscope (Olympus) and representative images were captured.

[3] = set-up: species or system Balb/C nude mice; settings: mouse, in vivo
Description: WBC staining of mouse blood smears: After smearing a thin layer from a drop of fresh mouse blood on a glass slide, slides were baked at 37° C. for 1 h before flooding with modified Wright Giemsa stain (Sigma) for 1 min followed by washing with deionized water for 3 min. After drying, the stained slide was observed under microscope, with WBCs stained blue. Estimation of total WBC was performed under light microscopy (Olympus) by counting in ten visual fields in each slide and calculation using the equation WBCs/μl=(total number of counted WBC/number of fields)×2000. Full blood counts: Hematological analysis of mice samples was conducted by Quest Laboratories (Singapore).
We tested four treatment protocols: PBS control (Group 1), PRL3-zumab monotherapy (Group 2), PRL3-zumab+5-FU combination therapy (Group 3), or 5-FU monotherapy (Group 4). According to the treatment protocol, bi-weekly doses of PRL3-zumab (100 μg/dose) or 5-FU (30 mg/kg/dose) were administered individually, or in combination, intravenously into groups of nude mice carrying orthotopic PRL-3^+ SNU-484 gastric tumors.

## CNC(=O)c1cc(Oc2ccc(NC(=O)Nc3ccc(Cl)c(C(F)(F)F)c3)cc2)ccn1 [Sorafenib]
Advanced HCC
  extended median survival: 2.8 months

## N.N.[Cl][Pt][Cl] [cisplatin]
[1]
  cancer cell growth in vitro: dose-dependent, nonspecific cell killing

## O=c1[nH]cc(F)c(=O)[nH]1 [5-FU, 5-fluorouracil]
[2]; four-group study, bi-weekly i.v. PRL3-zumab 100 μg/dose and/or 5-FU 30 mg/kg/dose, Day 28, n=5 per group
  mean tumor volume: 1.76±0.52 cm^3
[2]; tumor sections, compared to untreated
  numbers of infiltrating B cells and NK cells (immunofluorescence): lack of B or NK cell infiltration
[3]
  haematological profile (full blood counts): reduced neutrophil, lymphocyte, and monocyte counts
  overall animal activity: reduction in overall animal activity
  reduction in peripheral WBC counts compared to control or PRL3-zumab monotherapy: 5 fold

— patent US11155636B2, “PRL3 antibody” (Agency for Science, Technology and Research, priority 2016, dated 2021)
